Measurements published in patent US10155027B2, “Alpha-galactosidase A and 1-deoxygalactonojirimycin co-formulation for the treatment of fabry disease” (Amicus Therapeutics, Inc., priority 2012, dated 2018).
Counter-ions that a name gives are not always drawn. Like-named read-outs stand apart in the source and are kept apart here.

Experiments:
[1] = Phase 2a study of oral migalastat HCl co-administered with agalsidase in Fabry patients; format: in vivo, human; details: 23 Fabry patients; single oral 150 mg with 0.2, 0.5, and 1.0 mg/kg agalsidase
[2] = Phase 1 crossover absolute bioavailability, 150 mg oral capsule vs 150 mg IV infusion (Cohort 4); format: in vivo, human; details: for Vd: iv, 150 mg; for Cmax: read-out: Cmax (geometric mean); for AUC(0-t): read-out: AUC0-t (geometric mean); for AUC(0-inf): read-out: AUC0-∞ (geometric mean); for Tmax: read-out: tmax (median); for half-life: read-out: t½ (arithmetic mean) (converted)
Experimental: Healthy volunteers received migalastat HCl (DGJ HCl) via the intravenous (IV) route of administration to evaluate safety, tolerability, and pharmacokinetics. Another study was performed to determine the absolute bioavailability of migalastat after an oral capsule dose as compared to an IV administered dose of migalastat HCl in healthy volunteers. The absolute bioavailability arm was added to determine the exposure ratio of a 150 mg oral dose relative to a 150 mg dose administered as an IV infusion.
Type of Study: This Phase 1 study was a single-center study consisting of 2 designs. Cohorts 1, 2, and 3 were performed according to a randomized, double-blind, placebo-controlled, single ascending dose (SAD) IV study design to evaluate the safety, tolerability, and PK of IV administered migalastat HCl or IV administered placebo in healthy subjects. Cohort 4 was an open-label, randomized two-way crossover arm designed to assess the absolute bioavailability of orally administered migalastat HCl relative to IV administered migalastat HCl in healthy subjects.
Cohort 4 consisted of 2 sequential treatment periods with a washout period of 7 days between study drug administrations (FIG. 13). Cohort 4 enrolled 10 subjects all of whom received active drug (no placebo was administered). Cohort 4 was randomized such that 5 subjects received the oral formulation and 5 subjects received the IV formulation during Period 1, followed by the alternate formulation during Period 2. • * During Period 1, all Day −1 through Day 3 assessments were performed. ** The washout period was 7 days. *** During Period 2, subjects repeated all Day −1 through Day 3 assessments.
Cohort 4: Period 1: 150 mg migalastat HCl capsule (n=5) or 150 mg migalastat HCl via IV infusion (n=5). Period 2: 150 mg migalastat HCl capsule (n=5) or 150 mg migalastat HCl via IV infusion (n=5)
The migalastat HCl used for infusion was 50 mg/ml and the placebo was 0.9% sodium chloride. The oral migalastat HCl was administered as a 150 mg gelatin […].

[3] = target: T1, α-Gal A (Homo sapiens, UniProt P06280); test: α-Gal A stability in whole blood ex vivo at 37° C.; format: in vitro ADME; details: 5 nM and 50 nM α-Gal A formulated with 10 μM DGJ
T1 construct: purchased JCR Pharmaceuticals Co. Ltd, (Japan) JR-051; host or cells: CHO cells
T1 sequence (P06280 32-429): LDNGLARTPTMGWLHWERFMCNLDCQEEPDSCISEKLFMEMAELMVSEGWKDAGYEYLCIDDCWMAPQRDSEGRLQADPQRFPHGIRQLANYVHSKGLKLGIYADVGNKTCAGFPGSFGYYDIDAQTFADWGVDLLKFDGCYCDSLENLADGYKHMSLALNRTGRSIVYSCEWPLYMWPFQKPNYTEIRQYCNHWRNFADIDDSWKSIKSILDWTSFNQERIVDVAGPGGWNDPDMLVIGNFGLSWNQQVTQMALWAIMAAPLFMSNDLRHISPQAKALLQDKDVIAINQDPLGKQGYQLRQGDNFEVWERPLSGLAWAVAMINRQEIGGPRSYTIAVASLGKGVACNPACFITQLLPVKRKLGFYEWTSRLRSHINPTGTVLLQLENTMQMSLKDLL
Experimental: The effect of co-formulating α-Gal A with DGJ on α-Gal A stability in blood ex vivo was examined. Time-dependent loss of α-Gal A activity in whole blood at 37° C. was determined. 5 nM and 50 nM α-Gal A was formulated with or without 10 μM DGJ.

[4] = General toxicology NOAEL, rat; format: in vivo
[5] = General toxicology NOAEL, monkey; format: in vivo
[6] = not given; remark: listed apart in the source
[7] = predicted human exposure at 0.3 mg/kg IV
[8] = predicted human exposure at 10.0 mg/kg IV
[9] = predicted exposure at 0.3 mg/kg IV
[10] = predicted exposure at 10.0 mg/kg IV

Q: With OC[C@H]1NC[C@H](O)[C@@H](O)[C@H]1O [migalastat HCl, (2R,3S,4R,5S)-2-(hydroxymethyl) piperdine-3,4,5-triol] as the compound, how does the tolerability (oral 150 mg capsule, healthy volunteers and Fabry patients) read?
A: well tolerated

Q: And the linearity of exposure (oral administrations)?
A: linear exposures to 1250 mg

Q: What about the tolerability (single dose administrations up to 2000 mg, healthy volunteers, Phase 1) of the same compound?
A: well tolerated

Q: What about the “tissue uptake of active α-Gal A into skin” value [1] of the same compound?
A: improved tissue uptake of active α-Gal A into skin

Q: And the “CLT (arithmetic mean)” value ([2]; 150 mg IV)?
A: 9.34 L/h

Q: And the “geometric mean AUC0-t and AUC0-∞, IV relative to oral” value ([2]; 150 mg IV vs 150 mg oral)?
A: approximately 1.3 fold

Q: What about the “geometric mean Cmax, IV relative to oral” value ([2]; 150 mg IV vs 150 mg oral) of the same compound?
A: approximately 1.9 fold

Q: What about the “maximum arithmetic mean plasma concentrations, IV relative to oral” value ([2]; 150 mg IV vs 150 mg oral) of the same compound?
A: approximately 2 fold

Q: And the “CLT/F (arithmetic mean)” value ([2]; 150 mg oral)?
A: 12.8 L/h

Q: What about the “absolute oral bioavailability based on AUC0-t (Percentage Test/Reference)” value ([2]; 150 mg oral vs 150 mg IV) of the same compound?
A: 74.3%

Q: What about the “absolute oral bioavailability based on AUC0-∞ (Percentage Test/Reference)” value ([2]; 150 mg oral vs 150 mg IV) of the same compound?
A: 74.6%

Q: What about the Vd ([2]; human, plasma, 150 mg IV, read-out: Vss (arithmetic mean)) of the same compound?
A: 30.2 L

Q: And the Vd ([2]; human, plasma, 150 mg IV, read-out: Vz (arithmetic mean))?
A: 59.4 L

Q: What about the Cmax ([2]; human, plasma, 150 mg IV, 2-hour infusion) of the same compound?
A: 3380 ng/mL

Q: What about the AUC(0-t) ([2]; human, plasma, 150 mg IV) of the same compound?
A: 13200 ng·h/mL

Q: What about the AUC(0-inf) ([2]; human, plasma, 150 mg IV) of the same compound?
A: 13300 ng·h/mL

Q: And the Tmax ([2]; human, plasma, 150 mg IV)?
A: 1.93 h

Q: What about the half-life ([2]; human, plasma, 150 mg IV) of the same compound?
A: 4.54 h

Q: What about the AUC(0-t) ([2]; human, plasma, 150 mg oral) of the same compound?
A: 9780 ng·h/mL

Q: What about the AUC(0-inf) ([2]; human, plasma, 150 mg oral) of the same compound?
A: 9880 ng·h/mL

Q: What about the Cmax ([2]; human, plasma, 150 mg oral) of the same compound?
A: 1790 ng/mL

Q: And the Vd/F ([2]; human, plasma, 150 mg oral, read-out: Vz/F (arithmetic mean))?
A: 123 L

Q: What about the Tmax ([2]; human, plasma, 150 mg oral) of the same compound?
A: 2.75 h

Q: What about the half-life ([2]; human, plasma, 150 mg oral) of the same compound?
A: 7.28 h

Q: And the “effect on α-Gal A stability in whole blood” value [3]?
A: stabilized the enzyme and prevented enzyme inactivation

Q: What about the “Fold Cover to NOAEL AUC, Rat” value [4, 7] of the same compound?
A: 134

Q: And the “Fold Cover to NOAEL Cmax, Rat” value [4, 7]?
A: 65

Q: What about the “Fold Cover to NOAEL AUC, Rat” value [4, 8] of the same compound?
A: 4.05

Q: What about the “Fold Cover to NOAEL Cmax, Rat” value [4, 8] of the same compound?
A: 1.93

Q: And the AUC ([4]; rat, in vivo, 1500 mg/kg/day)?
A: 24900 ng·h/mL

Q: And the Cmax ([4]; rat, in vivo, 1500 mg/kg/day)?
A: 23400 ng/mL

Q: What about the NOAEL ([4]; rat, in vivo, general toxicology) of the same compound?
A: 1500 mg/kg/day

Q: What about the AUC ([5]; monkey, in vivo, 500 mg/kg/day) of the same compound?
A: 30600 ng·h/mL

Q: What about the Cmax ([5]; monkey, in vivo, 500 mg/kg/day) of the same compound?
A: 24500 ng/mL

Q: What about the NOAEL ([5]; monkey, in vivo, general toxicology) of the same compound?
A: 500 mg/kg/day

Q: What about the “Fold Cover to NOAEL AUC, Monkey” value [5, 7] of the same compound?
A: 165

Q: And the “Fold Cover to NOAEL Cmax, Monkey” value [5, 7]?
A: 68

Q: What about the “Fold Cover to NOAEL AUC, Monkey” value [5, 8] of the same compound?
A: 4.98

Q: And the “Fold Cover to NOAEL Cmax, Monkey” value [5, 8]?
A: 2.02

Q: And the “Fold Cover to AUC from human oral 1250 mg, Max” value [6, 9]?
A: 62

Q: And the “Fold Cover to AUC from human oral 1250 mg, Median” value [6, 9]?
A: 39

Q: And the “Fold Cover to AUC from human oral 1250 mg, Min” value [6, 9]?
A: 15.5

Q: And the “Fold Cover to Cmax from human oral 1250 mg, Max” value [6, 9]?
A: 61

Q: What about the “Fold Cover to Cmax from human oral 1250 mg, Median” value [6, 9] of the same compound?
A: 36

Q: What about the “Fold Cover to Cmax from human oral 1250 mg, Min” value [6, 9] of the same compound?
A: 2.6

Q: What about the “Fold Cover to AUC from human oral 1250 mg, Max” value [6, 10] of the same compound?
A: 1.89

Q: And the “Fold Cover to AUC from human oral 1250 mg, Median” value [6, 10]?
A: 1.19

Q: What about the “Fold Cover to AUC from human oral 1250 mg, Min” value [6, 10] of the same compound?
A: 0.47

Q: What about the “Fold Cover to Cmax from human oral 1250 mg, Max” value [6, 10] of the same compound?
A: 1.81

Q: What about the “Fold Cover to Cmax from human oral 1250 mg, Median” value [6, 10] of the same compound?
A: 1.07

Q: And the “Fold Cover to Cmax from human oral 1250 mg, Min” value [6, 10]?
A: 0.08
